Source: US7214671B2, “Use of 2-methylene-19-nor-20(S)-1α,25-dihydroxyvitamin D3 for the prophylaxis of bone diseases” (Wisconsin Alumni Research Foundation, priority 2004, dated 2007)
“And” between values parts separate entries of the source, which are not always exact repeats. Equal entries are not always repeated. “Also recorded” adds a separate entry of the source.

Columns and labels:
[1] = system: normal adult female Sprague-Dawley rats; test: Building bone mass in normal adult female rats (BMD, body weight, serum calcium); format: in vivo, rat; conditions: 2.5 ng/kg/d oral
Protocol: All 7-month old, nulliparous female, Sprague-Dawley rats (Harlan Sprague-Dawley, Madison, Wis.) were sham-operated at 7 months of age.
Beginning with arrival in the facility, rats were fed a purified rodent diet (“Diet 11”) prepared in-house (Suda et al, 1970, J. Nutr., 100:1049–1052) and containing 0.47% calcium, 0.3% phosphorus and 1.6 IU vitamin D3/g. To maintain consistent body weights (monitored weekly), rats were fed a total of 150 g diet/week, i.e. 21.5 g/day/rat.
Rats were dosed daily beginning 5–6 weeks post-surgery. Neobee oil (vehicle) or 2MD were delivered to the back of the tongue in 100 μL. The dosing solution concentrations were adjusted monthly based on group-average body weights.
At predose and at 1, 2, 4, 6, 10, 11, 18 and 25 weeks after dose, blood was collected 24 hr. after the most recent dose from the tail artery of ether-anesthetized rats. Serum was diluted in 0.1% lanthum chloride and the concentration of calcium determined by atomic absorption spectrometry. The values shown are averages for all rats, and include standard errors.
Both total body BMD and appendicular (right distal and proximal femur) BMD were determined by dual-energy X-ray absorptiometry (Lunar DPXα-Madison, Wis.; Small Animal Software-version 1.0e) at weeks 0, 8, 16, and 24. Appendicular BMD was performed as described (Haffa et al, 2000, J. Bone Min. Res. 15:872). The values shown are averages for all rats and include standard errors.

[2] = system: mobilization of bone calcium; test: Bone calcium mobilization (serum calcium) in vitamin D-deficient rats; format: in vivo, rat; conditions: serum calcium 24 hours after last dose, zero calcium diet, FIG. 3
Protocol: Blood serum calcium was measured 24 hours following the last dose in the rats as described in FIG. 2. Values represent mean±standard error.
(§1) The intestinal calcium transport and bone mobilization studies were carried out as described by Sicinski et al. (J. Med. Chem. 41, 4662–4674, 1998) and Suda et al. (J. Nutr. 100, 1049–1052, 1970).
The in vivo tests of increasing serum calcium of rats on a zero calcium diet provides an insight to […] or bone activity of 2MD.

[3] = molecular target: T1, full length recombinant rat receptor (nuclear vitamin D receptor) (Rattus norvegicus, UniProt P13053); test: Competitive binding of [3H]-1α,25-(OH)2-D3 to full length recombinant rat vitamin D receptor; conditions: FIG. 1
T1 construct: the full length recombinant rat receptor
T1 sequence (P13053 1-423): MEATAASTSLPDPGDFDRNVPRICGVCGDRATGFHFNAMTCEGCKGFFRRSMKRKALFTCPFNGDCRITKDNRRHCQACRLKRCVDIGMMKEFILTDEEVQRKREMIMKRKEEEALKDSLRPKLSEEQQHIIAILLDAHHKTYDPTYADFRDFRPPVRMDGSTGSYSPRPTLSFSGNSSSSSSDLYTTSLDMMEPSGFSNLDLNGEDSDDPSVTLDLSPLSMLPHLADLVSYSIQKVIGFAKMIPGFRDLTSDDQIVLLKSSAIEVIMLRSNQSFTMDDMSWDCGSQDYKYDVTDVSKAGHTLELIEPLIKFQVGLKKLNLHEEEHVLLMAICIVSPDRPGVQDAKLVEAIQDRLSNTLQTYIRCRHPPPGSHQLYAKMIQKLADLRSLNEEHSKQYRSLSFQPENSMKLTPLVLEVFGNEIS

Rhesus monkeys = test: Serum calcium after single oral bolus dose in Rhesus monkeys; format: in vivo, Rhesus monkey; design: dose or concentration left out as unconfirmed; conditions: 24 hours after dose, FIG. 10
Protocol: FIG. 10 is a line graph illustrating the blood serum calcium levels 24 hours after dose in Rhesus monkeys given a single oral bolus dose of 2-methylene-19-nor-20(S)-1α,25-dihydroxyvitamin D3 (2MD) at varying concentrations;
These and other tests indicate that primates will tolerate 2MD extremely well which may give a very large window between efficacy and the danger of hypercalcemia in man.

[4] = system: ovariectomized old female rats; test: Treatment of ovariectomized old female rats (bone mass, serum calcium, femur ash); format: in vivo, rat; conditions: doses of Table 1
Description: Values in the figure are mean±standard error.

[5] = system: intestinal calcium transport; test: Intestinal calcium transport in vitamin D-deficient rats (everted gut sac); format: in vivo, rat; conditions: oral gavage 7 consecutive days, FIG. 2
Protocol: Values represent means±standard error.
as §1

[6] = system: HL-60 promyelocytic cells; test: HL-60 cell differentiation into monocytes; format: cell-based; conditions: FIG. 5
Protocol: The differentiation of HL-60 promyelocytic cells into monocytes was determined as described by Ostrem et al. (J. Biol. Chem. 262, 14164–14171, 1987).

elevation of serum calcium concentration (Rhesus monkeys): does not cause significant elevation | change in serum calcium at dosage levels that elevated bone mass [4]: no change in serum calcium
SMILES: C=C1[C@H](O)CC(=C/C=C2\CCC[C@]3(C)[C@@H]([C@@H](C)CCCC(C)(C)O)CC[C@@H]23)C[C@H]1O [2MD, 2-methylene-19-nor-20(S)-1α,25-dihydroxyvitamin D3]
increase in cancellous bone BMD ([1]; 24 weeks, FIG. 12A): 14% | increase in cortical bone ([1]; FIG. 12B): 6% | change in body weight ([1]; FIG. 13A): absence of any change | change in serum calcium ([1]; FIG. 13B): absence of any change | total body BMD versus vehicle control ([1]; from 8 to 24 weeks, FIG. 11): increased above vehicle-control animals | potency relative to 1,25(OH)2D3 in mobilization of bone calcium [2]: 100 times and 80–100 times | binding to the receptor as compared to the standard 1,25-(OH)2D3 [3]: bound equally well; also recorded: about as active as 1,25(OH)2D3 | intestinal calcium transport activity compared with 1,25(OH)2D3 [5]: activity similar to that of 1,25-dihydroxyvitamin D3; also recorded: approximately equal | potency relative to 1,25(OH)2D3 on HL-60 cell differentiation [6]: 10–50 times
